Test system: human PBMC, CCR5-tropic HIV-1 replication, RT activity
Assay: HIV-1 replication inhibition in human PBMCs, dose response, cell-based, CCR5-tropic HIV-1, primary PBMCs (AID 504503)

| SMILES | IC50 |
| --- | --- |
| Cc1c2c(=O)n(-c3nc4ccccc4s3)nc-2cc(O)n1CCc1ccc(O)cc1 | 1.29 µM |
| Cc1c2c(=O)n(-c3nc4ccccc4s3)nc-2cc(O)n1CCc1cccs1 | 16.6 µM |
| COc1ccc(Cn2c(O)cc3nn(-c4nc5ccccc5s4)c(=O)c-3c2C)cc1 | 4.88 µM |
| Cc1c2c(=O)n(-c3nc4ccccc4s3)nc-2cc(O)n1Cc1ccccc1Cl | 5.16 µM |
| COc1ccccc1Cn1c(O)cc2nn(-c3nc4ccccc4s3)c(=O)c-2c1C | 3.93 µM |
| Cc1c2c(=O)n(-c3nc4ccccc4s3)nc-2cc(O)n1Cc1ccncc1 | 1.6 µM |
| Cc1c2c(=O)n(-c3nc4ccccc4s3)nc-2cc(O)n1Cc1ccc(F)cc1 | 6.8 µM |
| Cc1c2c(=O)n(-c3nc4ccccc4s3)nc-2cc(O)n1Cc1cccnc1 | 2.82 µM |
| COc1ccc(CCn2c(O)cc3nn(-c4nc5ccccc5s4)c(=O)c-3c2C)cc1 | 5.11 µM |
| Cc1c2c(=O)n(-c3nc4ccccc4s3)nc-2cc(O)n1C1CC1 | 2.17 µM |
| Cc1c2c(=O)n(-c3nc4ccccc4s3)nc-2cc(O)n1Cc1cccs1 | 10.5 µM |
| Cc1c2c(=O)n(-c3nc4ccccc4s3)nc-2cc(O)n1CCC(C)C | 5.37 µM |
